# Results from US8623860B2, “Azetidine derivatives, pharmaceutical compositions and uses thereof” (Boehringer Ingelheim International GmbH, priority 2011, dated 2014).
# Target: human ACC2 (Homo sapiens (Human), UniProt O00763)
# Assay: ACC2 assay, spectrophotometric 384 well assay (NADH-linked, coupled lactate dehydrogenase/pyruvate kinase reaction)
# Type: biochemical
# Conditions: hACC2 construct lacking the 128 N-terminal amino acids; 25° C., 340 nm, 15 minutes
# Protocol: Spectrophotometric 384 Well Assay
# Malonyl CoA formation by acetyl CoA carboxylases is stoichometrically linked to the consumption of ATP. ACC2 activity is measured in a NADH-linked kinetic method measuring ADP generated during the ACC reaction using a coupled lactate dehydrogenase/pyruvate kinase reaction.
# For biological testing, a human ACC2 construct which lacks the 128 amino acids at the N-terminus for increased solubility (nt 385-6966 in Genbank entry AJ575592) is cloned. The protein is then expressed in insect cells using a baculoviral expression system. Protein purification is performed by anion exchange.
# All compounds are dissolved in dimethyl sulfoxide (DMSO) to a concentration of 10 mM.
# Assay reactions are then carried out in 384-well plates, with hACC2 in an appropriate dilution and at final assay concentrations (f.c.) of 100 mM Tris (pH 7.5), 10 mM trisodium citrate, 25 mM KHCC3, 10 mM MgCl2, 0.5 mg/ml BSA, 3.75 mM reduced L-glutathione, 15 U/ml lactate dehydrogenase, 0.5 mM phosphoenolpyruvate, 15 U/ml pyruvate kinase, compounds at different concentrations at final DMSO concentrations of 1%.
# The enzymatic reaction is then started by addition of a mixture of NADH, acetyl Coenzyme A (both 200 μM f.c.) and ATP (500 uM f.c.). The decrease of the optical density (slope S) is then determined at 25° C. at a wavelength of 340 nm over 15 minutes in a spectrophotometric reader.
# Each assay microtiter plate contains wells with vehicle instead of compound as controls for the non-inhibited enzyme (100% CTL; ‘HIGH’) and wells without acetyl-CoA as controls for non-specific NADH degradation (0% CTL; ‘LOW’).
# The slope S is used for calculation of % CTL=(S(compound)−S(‘LOW’))/(S(‘HIGH’)−S(‘LOW’))*100. Compounds will give values between 100% CTL (no inhibition) and 0% CTL (complete inhibition).
# For IC50 value determination, the sample slope in the presence of the test compound after subtraction of the low controls (S(compound)−S(‘LOW’)) are used.
# An IC50 value is derived from the compound slopes at different dosages after subtraction of the low controls (S(compound)−S(‘LOW’)) by non-linear regression curve fitting (equation y=(A+((B−A)/(1+((C/x)^D))))).
# In the following table the activity expressed as IC50 (μM) of compounds according to the invention is presented wherein the IC50 values are determined in the ACC2 assay as described hereinbefore. The term “Ex.” refers to the example numbers according to the following experimental section.
# human ACC2, sequence (O00763 129-2458): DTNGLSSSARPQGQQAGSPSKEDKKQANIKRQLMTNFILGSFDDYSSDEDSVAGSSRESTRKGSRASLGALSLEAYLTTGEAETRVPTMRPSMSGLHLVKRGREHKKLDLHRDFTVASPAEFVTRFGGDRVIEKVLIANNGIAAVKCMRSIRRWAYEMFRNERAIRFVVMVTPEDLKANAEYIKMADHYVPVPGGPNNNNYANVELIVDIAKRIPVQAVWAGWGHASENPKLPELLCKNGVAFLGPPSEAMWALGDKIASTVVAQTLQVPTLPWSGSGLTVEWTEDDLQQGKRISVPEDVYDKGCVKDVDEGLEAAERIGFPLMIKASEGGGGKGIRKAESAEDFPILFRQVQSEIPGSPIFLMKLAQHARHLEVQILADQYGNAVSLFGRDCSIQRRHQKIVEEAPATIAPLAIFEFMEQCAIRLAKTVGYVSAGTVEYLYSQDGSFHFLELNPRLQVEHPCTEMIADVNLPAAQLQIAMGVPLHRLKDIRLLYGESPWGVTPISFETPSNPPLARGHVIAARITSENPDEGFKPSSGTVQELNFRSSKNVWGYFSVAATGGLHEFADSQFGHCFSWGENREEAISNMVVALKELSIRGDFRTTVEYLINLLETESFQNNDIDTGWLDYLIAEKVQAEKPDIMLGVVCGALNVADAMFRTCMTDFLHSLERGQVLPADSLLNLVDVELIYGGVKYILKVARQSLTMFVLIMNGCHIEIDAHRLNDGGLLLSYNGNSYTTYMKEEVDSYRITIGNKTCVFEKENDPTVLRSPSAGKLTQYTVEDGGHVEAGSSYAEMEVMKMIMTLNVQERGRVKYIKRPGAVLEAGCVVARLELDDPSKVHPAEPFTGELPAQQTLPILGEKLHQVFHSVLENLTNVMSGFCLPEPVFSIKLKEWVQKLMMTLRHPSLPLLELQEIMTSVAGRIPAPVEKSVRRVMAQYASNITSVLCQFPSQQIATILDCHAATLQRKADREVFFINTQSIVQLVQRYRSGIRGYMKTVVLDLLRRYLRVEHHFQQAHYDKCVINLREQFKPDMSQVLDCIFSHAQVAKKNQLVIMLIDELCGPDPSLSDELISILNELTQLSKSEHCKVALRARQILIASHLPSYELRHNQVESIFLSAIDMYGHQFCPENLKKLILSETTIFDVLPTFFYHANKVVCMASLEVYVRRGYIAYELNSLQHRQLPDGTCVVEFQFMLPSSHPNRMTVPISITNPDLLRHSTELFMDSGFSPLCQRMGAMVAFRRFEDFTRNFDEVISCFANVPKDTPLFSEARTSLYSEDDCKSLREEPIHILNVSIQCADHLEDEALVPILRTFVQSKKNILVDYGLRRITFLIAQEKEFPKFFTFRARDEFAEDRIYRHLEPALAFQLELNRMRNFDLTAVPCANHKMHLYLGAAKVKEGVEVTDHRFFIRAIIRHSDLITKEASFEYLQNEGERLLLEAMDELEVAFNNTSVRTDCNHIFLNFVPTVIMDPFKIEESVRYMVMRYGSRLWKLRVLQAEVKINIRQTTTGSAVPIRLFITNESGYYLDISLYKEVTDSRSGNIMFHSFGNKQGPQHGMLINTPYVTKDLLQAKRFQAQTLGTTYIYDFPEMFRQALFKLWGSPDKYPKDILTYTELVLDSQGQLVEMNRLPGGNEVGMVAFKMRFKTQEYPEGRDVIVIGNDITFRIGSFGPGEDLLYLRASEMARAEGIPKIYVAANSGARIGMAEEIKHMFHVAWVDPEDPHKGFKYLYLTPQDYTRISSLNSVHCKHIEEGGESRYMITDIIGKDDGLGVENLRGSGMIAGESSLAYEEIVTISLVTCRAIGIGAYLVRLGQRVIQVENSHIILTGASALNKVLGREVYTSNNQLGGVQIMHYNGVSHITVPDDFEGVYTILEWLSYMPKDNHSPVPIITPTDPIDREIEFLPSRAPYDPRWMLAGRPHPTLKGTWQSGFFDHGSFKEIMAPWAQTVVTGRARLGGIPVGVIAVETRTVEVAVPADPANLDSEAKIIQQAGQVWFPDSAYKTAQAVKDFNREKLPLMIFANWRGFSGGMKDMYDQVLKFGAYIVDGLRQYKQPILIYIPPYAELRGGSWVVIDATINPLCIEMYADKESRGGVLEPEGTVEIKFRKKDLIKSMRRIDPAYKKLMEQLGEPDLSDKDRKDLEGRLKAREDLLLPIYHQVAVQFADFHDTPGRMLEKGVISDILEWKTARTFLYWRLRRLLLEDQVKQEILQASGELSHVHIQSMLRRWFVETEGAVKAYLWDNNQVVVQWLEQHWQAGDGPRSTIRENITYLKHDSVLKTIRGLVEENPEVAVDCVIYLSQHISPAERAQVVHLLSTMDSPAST
row,Structure (SMILES),IC50 [nM]
1,CC(Cc1ccc(C2CN(c3ccc4c(c3)OCCO4)C2)cc1)NC(=O)C(F)F (stereo not shown) [Example 3.84],3600
2,Cc1nocc1C(=O)N[C@@H](C)c1ccc(C2CN(c3ccc4c(c3)OCCO4)C2)cc1 [Example 3.65],1180
3,C[C@H](NC(=O)CC#N)c1ccc(C2CN(c3ccc(OCC4CC4)cc3)C2)cc1 [Example 3.78],1220
4,C[C@H](NC(=O)c1cnn(C)c1)c1ccc(C2CN(c3ccc4c(c3)OCCO4)C2)cc1 [Example 3.71],1690
5,Cc1oncc1C(=O)NC(C)Cc1ccc(C2CN(c3ccc4c(c3)OCCO4)C2)cc1 (stereo not shown) [Example 3.76],2820
6,C=CCC(=O)N[C@@H](C)c1ccc(C2CN(c3ccc4c(c3)OCCO4)C2)cc1 [Example 3.66],970
7,C[C@H](NC(=O)c1cncs1)c1ccc(C2CN(c3ccc(OCC4CC4)cc3)C2)cc1 [Example 3.86],450
8,CC(=O)NC(C)CCc1ccc(C2CN(c3ccc(OC4CC4)cc3)C2)cc1 (stereo not shown) [Example 1.15],480
9,CCCC(=O)NC(C)Cc1ccc(C2CN(c3ccc(OCC4CC4)cc3)C2)cc1 (stereo not shown) [Example 3.08],3070
10,CC(=O)NC(C)CCc1ccc(C2CN(c3ccc4c(c3)OCCO4)C2)cc1 (stereo not shown) [Example 1.14],670
11,CC(Cc1ccc(C2CN(c3ccc(OCC4CC4)cc3)C2)cc1)NC(=O)C(F)F (stereo not shown) [Example 3.12],2730
12,CC(=O)Nc1cccc(C(=O)N[C@@H](C)c2ccc(C3CN(c4ccc(OCC5CC5)cc4)C3)cc2)c1 [Example 3.36],2190
13,CC(=O)Nc1nc(C)c(C(=O)N[C@@H](C)c2ccc(C3CN(c4ccc5c(c4)OCCO5)C3)cc2)s1 [Example 3.72],1970
14,CC(Cc1ccc(C2CN(c3ccc(OCC4CC4)cc3)C2)cc1)NC(=O)C1CCC1 (stereo not shown) [Example 3.62],2910
15,CC(=O)Nc1nc(C(=O)N[C@@H](C)c2ccc(C3CN(c4ccc(OCC5CC5)cc4)C3)cc2)cs1 [Example 3.31],1640
16,CC(Cc1ccc(C2CN(c3ccc(OCC4CC4)cc3)C2)cc1)NC(=O)Cc1cc[nH]c1 (stereo not shown) [Example 3.13],2970

row,Structure (SMILES),IC50 [nM]
1,CC(=O)NC(C)Cc1ccc(C2CN(c3ccc(OC4CC4)cc3)C2)cc1 (stereo not shown) [Example 1.03],340
2,C=CCC(=O)NC(C)Cc1ccc(C2CN(c3ccc4c(c3)OCCO4)C2)cc1 (stereo not shown) [Example 3.19],2880
3,CCOC(=O)C1(F)CC1C(=O)NC(C)Cc1ccc(C2CN(c3ccc(OCC4CC4)cc3)C2)cc1 (stereo not shown) [Example 3.79],2300
4,C[C@H](NC(=O)C(F)F)c1ccc(C2CN(c3ccc4c(c3)OCCO4)C2)cc1 [Example 3.70],1020
5,C[C@H](NC(=O)C1CC(F)C1)c1ccc(C2CN(c3ccc4c(c3)OCCO4)C2)cc1 (stereo partly shown) [Example 3.33],2870
6,Cc1ncsc1C(=O)N[C@@H](C)c1ccc(C2CN(c3ccc(OCC4CC4)cc3)C2)cc1 [Example 3.25],3010
7,C#CCCC(=O)N[C@@H](C)c1ccc(C2CN(c3ccc(OCC4CC4)cc3)C2)cc1 [Example 3.53],2380
8,Cc1nc(C(=O)N[C@@H](C)c2ccc(C3CN(c4ccc(OCC5CC5)cc4)C3)cc2)c(C)s1 [Example 3.38],1410
9,CC(=O)NCCCC(=O)NC(C)Cc1ccc(C2CN(c3ccc(OCC4CC4)cc3)C2)cc1 (stereo not shown) [Example 3.67],1680
10,CCCOc1ccc(N2CC(c3ccc(CC(C)NC(C)=O)cc3)C2)c(OC)c1 (stereo not shown) [Example 1.11],600
11,CC(=O)NCCCC(=O)N[C@@H](C)c1ccc(C2CN(c3ccc(OCC4CC4)cc3)C2)cc1 [Example 3.41],2070
12,C[C@H](NC(=O)C1CCOC1)c1ccc(C2CN(c3ccc(OCC4CC4)cc3)C2)cc1 (stereo partly shown) [Example 3.20],1020
13,CC(=O)NC(C)CCc1ccc(C2CN(c3ncc4nc(-c5ccccc5)oc4n3)C2)cc1 (stereo not shown) [Example 2.05],810
14,C[C@H](NC(=O)C1(C#N)CC1)c1ccc(C2CN(c3ccc(OCC4CC4)cc3)C2)cc1 [Example 3.35],1460
15,CCC(=O)NC(C)Cc1ccc(C2CN(c3ccc4c(c3)OCCO4)C2)cc1 (stereo not shown) [Example 3.83],3130

# Continued, values first:
row,IC50 [nM],Structure (SMILES)
1,1820,"CC(=O)N[C@@H](C)c1ccc(C2CN(c3ccnc(N(C)CC(F)F)n3)C2)cc1 [Example 4.1, (S)—N-(1-(4-(1-(2-((2,2-difluoroethyl)(methyl)amino)pyrimidin-4-yl)azetidin-3-yl)phenyl)ethyl)acetamide]"
2,1510,CC(=O)N[C@@H](C)c1ccc(C2CN(c3nc(N(C)C)ncc3F)C2)cc1 [Example 4.3]
3,170,CC(=O)N[C@@H](C)c1ccc(C2CN(c3ccc4c(c3)OCCO4)C2)cc1 [Example 1.27]
4,2080,CCC(C)Nc1ncc(N2CC(c3ccc(C(C)NC(C)=O)cc3)C2)cn1 (stereo not shown) [Example 1.22]
5,330,"Cc1oncc1C(=O)N[C@@H](C)c1ccc(C2CN(c3ccc(OCC4CC4)cc3)C2)cc1 [Example 3.01, (S)—N-(1-(4-(1-(4-(cyclopropylmethoxy)phenyl)azetidin-3-yl)phenyl)ethyl)-5-methylisoxazole-4-carboxamide]"
6,9040,CC(=O)N[C@@H](C)c1ccc(C2CN(c3ccnc(N4CCOCC4)n3)C2)cc1 [Example 1.32]
7,3790,CCCc1cnc(N2CC(c3ccc(CC(C)NC(C)=O)cc3)C2)nc1 (stereo not shown) [Example 2.02]
8,380,CC(=O)N[C@@H](C)c1ccc(C2CN(c3ccc(OCC4CC4)cc3)C2)cc1 [Example 1.23]
9,420,CC(=O)N[C@@H](C)c1ccc(C2CN(c3ncc(C4CC4)cn3)C2)cc1 [Example 2.12]
10,2170,COCC(=O)N[C@@H](C)c1ccc(C2CN(c3ccc(OCC4CC4)cc3)C2)cc1 [Example 3.50]
11,2520,CC(F)C(=O)N[C@@H](C)c1ccc(C2CN(c3ccc4c(c3)OCCO4)C2)cc1 (stereo partly shown) [Example 3.61]
12,180,CC(=O)N[C@@H](C)c1ccc(C2CN(c3ncc(OCC4CC4(F)F)cc3F)C2)cc1 (stereo partly shown) [Example 1.35]
13,8100,CC(=O)NC(C)Cc1ccc(C2CN(c3ccc4ncccc4c3)C2)cc1 (stereo not shown) [Example 1.10]
14,320,COc1ccc(-c2cnc(N3CC(c4ccc([C@H](C)NC(C)=O)cc4)C3)nc2)cc1 [Example 2.08]
15,850,CC(=O)N[C@@H](C)c1ccc(C2CN(c3ncc(C(F)(F)F)cn3)C2)cc1 [Example 2.15]
16,940,CCC(=O)N[C@@H](C)c1ccc(C2CN(c3ccc(OCC4CC4)cc3)C2)cc1 [Example 3.42]
17,1220,CC(=O)N[C@@H](C)c1ccc(C2CN(c3ccnc(OCC(F)F)c3)C2)cc1 [Example 5.2]
18,540,CC(=O)N[C@@H](C)c1ccc(C2CN(c3ncnc(OCC4CC4(F)F)c3F)C2)cc1 (stereo partly shown) [Example 5.6]
19,3180,CC(=O)NC(C)CCc1ccc(C2CN(c3cccc(OC(C)C)c3)C2)cc1 (stereo not shown) [Example 1.18]
20,610,CCCOc1cc(N2CC(c3ccc(CC(C)NC(C)=O)cc3)C2)ccn1 (stereo not shown) [Example 1.12]
21,180,CC(=O)N[C@@H](C)c1ccc(C2CN(c3ncc(OCC4CC4(F)F)cn3)C2)cc1 (stereo partly shown) [Example 1.33]
22,540,CC(=O)N[C@@H](C)c1ccc(C2CN(c3ccc(OC4CC4)cc3)C2)cc1 [Example 1.25]
23,2700,CC(C(=O)N[C@@H](C)c1ccc(C2CN(c3ccc(OCC4CC4)cc3)C2)cc1)C(F)(F)F (stereo partly shown) [Example 3.47]
24,510,"CCCOc1ccc(N2CC(c3ccc(CC(C)NC(C)=O)cc3)C2)cc1 (stereo not shown) [Example 1.01, N-(1-(4-(1-(4-Propoxyphenyl)azetidin-3-yl)phenyl)propan-2-yl)acetamide]"
